Data published in patent US12215095B2, “Compounds for the treatment of respiratory diseases” (Tianli Biotech Pty Ltd, priority 2018, dated 2025).
Marks after values point to notes of the source that are not given here.

How the values were obtained:
[1] = target: casein kinase 1δ (Homo sapiens (Human), UniProt P48730); assay: Kinase inhibition assay (HotSpot assay, Reaction Biology Corp); assay type: biochemical; conditions: 10 μM ATP, 10-dose IC50 mode, 3-fold serial dilution starting at 10 μM; for IC50: read-out: CK1δ IC50; for pIC50: casein kinase 1δ
casein kinase 1δ, sequence (P48730 whole entry): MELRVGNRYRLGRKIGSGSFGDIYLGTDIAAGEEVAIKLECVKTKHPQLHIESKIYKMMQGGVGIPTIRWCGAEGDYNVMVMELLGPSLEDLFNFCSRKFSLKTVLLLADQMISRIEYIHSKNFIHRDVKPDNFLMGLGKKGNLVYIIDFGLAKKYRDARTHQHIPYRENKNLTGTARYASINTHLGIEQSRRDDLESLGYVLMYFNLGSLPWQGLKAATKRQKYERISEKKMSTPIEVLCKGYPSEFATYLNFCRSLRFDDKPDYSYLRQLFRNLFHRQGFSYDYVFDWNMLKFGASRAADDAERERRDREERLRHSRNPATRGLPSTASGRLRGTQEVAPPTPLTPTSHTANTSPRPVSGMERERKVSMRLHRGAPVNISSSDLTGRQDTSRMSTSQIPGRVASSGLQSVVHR

[2] = system: TGF-β-induced IL-11; assay: Human parenchymal fibroblast cell assay: inhibition of TGF-β-induced IL-11 (ELISA); assay type: cell-based; conditions: primary human parenchymal fibroblasts, 100 pM TGF-β1, 16-24 hours, 4.00 is assigned to compounds that failed to cause 50% or more inhibition at 100 µM; for IC50: Fibroblast, read-out: pIC50 IL-11 suppression (converted)
Method: Primary human parenchymal fibroblast cells (pFbs) were cultured from parenchyma of lung resection specimens and from non-transplanted lungs of donors without chronic respiratory disease. pFbs were passaged in Dulbecco's Modified Eagle's Media (DMEM) containing 10% (v/v) heat-inactivated fetal calf serum (FCS), 15 mM HEPES, 0.2% (v/v) sodium bicarbonate, 2 mM L-glutamine, 1% (v/v) non-essential amino acids, 1% (v/v) sodium pyruvate, 2.5 μg/mL amphotericin, 5 IU/mL penicillin and 50 μg/mL streptomycin.
Prior to experimentation, pFb were incubated in serum-free DMEM containing 0.25% bovine serum albumin (BSA) and insulin-transferrin-selenium-containing supplement (Monomed A; CSL, Parkville, Melbourne, Australia). The cells were incubated with small molecular CK1δelta inhibitors (0.1-10 μM) for 30 min prior to 100 pM TGF-β1 (R&D Systems, Minneapolis, MN) and the incubation continued for 16-24 hours prior to harvest of supernatant for detection of immunoreactive IL-11. Stock solutions were made as 10 mM in 100% DMSO and diluted to the required concentration in medium containing 0.1% DMSO (final concentration).
Supernatants were collected for measurement of IL-11 (R&D DuoSet, DY218) by ELISA following the manufacturers' instructions. Generally, capture antibodies were initially diluted to the recommended concentrations using PBS buffer, and then used to coat the wells of 96-well microplates (Greiner, #655061) by adding 50 μL/well and incubated overnight at room temperature. Next day, solutions were discarded and wells were washed 3 times with wash buffer (PBS containing 0.1% (v/v) Tween-20) prior to the addition of 200 μL of blocking solution (PBS containing 1% (v/v) BSA) for 1 hour to block non-specific sites. Plates were then washed 3 times with wash buffer and 50 μL of samples or standards were then added to wells and incubated for 2 hours at room temperature. After the incubation, plates were washed 3 times with wash buffer and 50 μL of detection antibodies were added to wells and incubated for 2 hours at room temperature. Plates were then washed 3 times before adding streptavidin-conjugated horseradish peroxidase (at the recommended concentrations) for 45 min. Plates were then washed 5 times with wash buffer and 100 μL TMB substrate solution (equal parts A and B, BD Biosciences) was added to each well until sufficient signals emerged. The reactions were inactivated by adding 100 μL sulphuric acid (2M H2SO4). The absorbance was measured at 450 nm using the Multiskan Ascent® plate reader. The absorbance of the cytokine standards was fitted to a logistic equation, allowing the concentrations of cytokine in samples to be determined.
pIC50 values (the negative log of the concentration suppressing IL-11 level by 50%) for inhibition of TGF-β-induced IL-11 were interpolated from the linear regression of log concentration small molecule versus IL-11 level (Table 4 and FIG. 2).

`Fc1ccc(-c2ncn(C3CCCCC3)c2-c2ccnc(NCCCc3ccccc3)n2)cc1` [ZH3-98, 4-(1-Cyclohexyl-4-(4-fluorophenyl)-1H-imidazol-5-yl)-N-(3-phenylpropyl)pyrimidin-2-amine] showed an IC50 [1] of 2.54 nM, a pIC50 [1] of 8.59 and an IC50 [2] of 2000 nM.

Work on `Fc1ccc(-c2ncn(C3CCCCC3)c2-c2ccnc(NCC3CCCC3)n2)cc1` [ZH2-86, 4-(1-Cyclohexyl-4-(4-fluorophenyl)-1H-imidazol-5-yl)-N-(cyclopentylmethyl)pyrimidin-2-amine] yielded an IC50 [1] of 7.16 nM, a pIC50 [1] of 8.15 and an IC50 [2] of 1910 nM.

With `CC(C)(F)n1cnc(-c2ccc(F)cc2)c1-c1ccnc(NCC2CCC(F)(F)CC2)n1` [ZH2-62] the pIC50 [1] was 7.42 and the “pIC50 IL-11 suppression” value [2] was < 4.00*.

`FCn1cnc(-c2ccc(F)cc2)c1-c1ccnc(NCCCc2ccccc2)n1` [ZH2-122] was tested, and the IC50 [1] was 5.07 nM.

With `Fc1ccc(-c2ncn(C3CCCCC3)c2-c2ccnc(NCC3CCCCC3)n2)cc1` [ZH2-98, 4-(1-Cyclohexyl-4-(4-fluorophenyl)-1H-imidazol-5-yl)-N-(cyclohexylmethyl)pyrimidin-2-amine] the IC50 [1] was 12.6 nM, the pIC50 [1] was 7.91 and the IC50 [2] was 1780 nM.

With `Fc1ccc(-c2ncn(C3CCCCC3)c2-c2ccnc(NCC3CCOCC3)n2)cc1` [ZH2-102, 4-(1-Cyclohexyl-4-(4-fluorophenyl)-1H-imidazol-5-yl)-N-((tetrahydro-2H-pyran-4-yl)methyl)pyrimidin-2-amine] the IC50 [1] was 1.7 nM, the pIC50 [1] was 8.77 and the IC50 [2] was 407 nM.

In the case of `Fc1ccc(-c2ncn(C3CCCCC3)c2-c2ccnc(NCc3ccc(-c4ccccc4)cc3)n2)cc1` [ZH2-66, N-([1,1′-Biphenyl]-4-ylmethyl)-4-(1-cyclohexyl-4-(4-fluorophenyl)-1H-imidazol-5-yl)pyrimidin-2-amine], the pIC50 [1] is reported as 5.86 and the IC50 [2] is reported as > 100000 nM.

For `C[C@H](Nc1nccc(-c2c(-c3ccc(F)cc3)ncn2C2CCCCC2)n1)C1CCCCC1` [ZH3-90, (S)-4-(1-Cyclohexyl-4-(4-fluorophenyl)-1H-imidazol-5-yl)-N-(1-cyclohexylethyl)pyrimidin-2-amine], the pIC50 [1] was 6.57 and the IC50 [2] was > 100000 nM.

`Fc1ccc(-c2ncn(C3CCCCC3)c2-c2ccnc(NCc3ccccn3)n2)cc1` [ZH2-130, 4-(1-Cyclohexyl-4-(4-fluorophenyl)-1H-imidazol-5-yl)-N-(pyridin-2-ylmethyl)pyrimidin-2-amine(2-picolyl)] gave an IC50 [1] of 1.93 nM, a pIC50 [1] of 8.71 and an IC50 [2] of 724 nM.

`C[C@@H](Nc1nccc(-c2c(-c3ccc(F)cc3)ncn2C2CCCCC2)n1)C1CCCCC1` [ZH3-94, (R)-4-(1-Cyclohexyl-4-(4-fluorophenyl)-1H-imidazol-5-yl)-N-(1-cyclohexylethyl)pyrimidin-2-amine] was tested, and the IC50 [1] was 34.4 nM, the pIC50 [1] was 7.46 and the IC50 [2] was 912 nM.

In the case of `Fc1ccc(-c2ncn(C3CCCCC3)c2-c2ccnc(NCC3CCC(F)(F)CC3)n2)cc1` [ZH3-74, 4-(1-Cyclohexyl-4-(4-fluorophenyl)-1H-imidazol-5-yl)-N-((4,4-difluorocyclohexyl)methyl)pyrimidin-2-amine], the IC50 [1] is reported as 2.97 nM, the pIC50 [1] is reported as 8.53 and the IC50 [2] is reported as 6760 nM.
